Patent publication US6339042B1, “Herbicidal N-cyclohexadienyl heteroaryloxyacetamides” (American Cyanamid Co., priority 1999, dated 2002)

Tests used:
Amaranthus tuberculatus [1] = assay: Pre-emergence herbicidal evaluation, AMATA; type: in vivo; conditions: three weeks after treatment
Excerpt: (§1) The treated pots are then placed on greenhouse benches, watered and cared for in accordance with conventional greenhouse procedures.

Alopecurus myosuroides [2] = assay: Pre-emergence herbicidal evaluation, ALOMY; type: in vivo; conditions: three weeks after treatment
Excerpt: as §1

Apera spica venti [3] = assay: Pre-emergence herbicidal evaluation, APESV; type: in vivo; conditions: three weeks after treatment
Excerpt: as §1

Echinochloa crus-galli [4] = assay: Pre-emergence herbicidal evaluation, ECHCG; type: in vivo; conditions: three weeks after treatment
Excerpt: as §1

Setaria viridis [5] = assay: Pre-emergence herbicidal evaluation, SETVI; type: in vivo; conditions: three weeks after treatment
Excerpt: as §1

Lolium perenne [6] = assay: Pre-emergence herbicidal evaluation, LOLPE; type: in vivo; conditions: three weeks after treatment
Excerpt: as §1

Triticum aestivum [7] = assay: Pre-emergence herbicidal evaluation, TRZAW; type: in vivo; conditions: three weeks after treatment
Excerpt: as §1

Hordeum vulgare [8] = assay: Pre-emergence herbicidal evaluation, HORVW; type: in vivo; conditions: three weeks after treatment
Excerpt: as §1

Zea mays [9] = assay: Pre-emergence herbicidal evaluation, ZEAMX; type: in vivo; conditions: three weeks after treatment
Excerpt: as §1

Glycine max [10] = assay: Pre-emergence herbicidal evaluation, GLXMA; type: in vivo; conditions: three weeks after treatment
Excerpt: as §1

Oryza sativum [11] = assay: Pre-emergence herbicidal evaluation, ORYSA; type: in vivo; conditions: three weeks after treatment
Excerpt: as §1

Amaranthus tuberculatus [12] = assay: Post-emergence herbicidal evaluation, AMATA; type: in vivo; conditions: three weeks after treatment
Galium aparine = assay: Post-emergence herbicidal evaluation, GALAP; conditions: three weeks after treatment
Alopecurus myosuroides [13] = assay: Post-emergence herbicidal evaluation, ALOMY; conditions: three weeks after treatment
Apera spica venti [14] = assay: Post-emergence herbicidal evaluation, APESV; conditions: three weeks after treatment
Procedure: (§2) The compounds of the invention are tested for pre- and post-emergence herbicidal activity.
(§3) Each pot is examined three weeks after treatment and phytotoxicity is assessed according to the rating system set forth below.
(§4) These acetone solutions are diluted with water and the resulting formulations applied at dosage levels equivalent of about 0.4 to 0.1 kg per hectare of test compound per pot. After spraying the plants are placed on greenhouse benches and are cared for in the usual manner, commensurate with conventional greenhouse practices.

Echinochloa crus-galli [15] = assay: Post-emergence herbicidal evaluation, ECHCG; conditions: three weeks after treatment
Setaria viridis [16] = assay: Post-emergence herbicidal evaluation, SETVI; conditions: three weeks after treatment
Lolium perenne [17] = assay: Post-emergence herbicidal evaluation, LOLPE; conditions: three weeks after treatment
Triticum aestivum [18] = assay: Post-emergence herbicidal evaluation, TRZAW; conditions: three weeks after treatment
Hordeum vulgare [19] = assay: Post-emergence herbicidal evaluation, HORVW; conditions: three weeks after treatment
Procedure: as §3, §4

Zea mays [20] = assay: Post-emergence herbicidal evaluation, ZEAMX; conditions: three weeks after treatment
Procedure: as §3, §4

Glycine max [21] = assay: Post-emergence herbicidal evaluation, GLXMA; conditions: three weeks after treatment
Procedure: as §3, §4

Oryza sativum [22] = assay: Post-emergence herbicidal evaluation, ORYSA; conditions: three weeks after treatment
Procedure: as §2, §3, §4

CC1=CC(N(C)C(=O)COc2nnc(C(F)(F)F)s2)=CC(C)(C)C1 [Example 3]
9 (9 - Complete kill): phytotoxicity rating ALOMY (Alopecurus myosuroides [2]; 0.800 kg/ha) | phytotoxicity rating APESV (Apera spica venti [3]; 0.800 kg/ha) | phytotoxicity rating ECHCG (Echinochloa crus-galli [4]; 0.800 kg/ha) | phytotoxicity rating SETVI (Setaria viridis [5]; 0.800 kg/ha) | phytotoxicity rating LOLPE (Lolium perenne [6]; 0.400 kg/ha) | phytotoxicity rating LOLPE (Lolium perenne [6]; 0.800 kg/ha)
7 (7 - Good herbicidal effect): phytotoxicity rating LOLPE (Lolium perenne [6]; 0.200 kg/ha) | phytotoxicity rating ZEAMX (Zea mays [9]; 0.800 kg/ha) | phytotoxicity rating ALOMY (Alopecurus myosuroides [13]; 0.400 kg/ha) | phytotoxicity rating LOLPE (Lolium perenne [17]; 0.200 kg/ha) | phytotoxicity rating LOLPE (Lolium perenne [17]; 0.400 kg/ha)
6 (6 - Herbicidal effect): phytotoxicity rating AMATA (Amaranthus tuberculatus [1]; 0.400 kg/ha) | phytotoxicity rating ALOMY (Alopecurus myosuroides [2]; 0.100 kg/ha) | phytotoxicity rating APESV (Apera spica venti [3]; 0.200 kg/ha) | phytotoxicity rating ECHCG (Echinochloa crus-galli [4]; 0.100 kg/ha) | phytotoxicity rating SETVI (Setaria viridis [5]; 0.100 kg/ha) | phytotoxicity rating ORYSA (Oryza sativum [11]; 0.400 kg/ha) | phytotoxicity rating ORYSA (Oryza sativum [11]; 0.800 kg/ha) | phytotoxicity rating APESV (Apera spica venti [14]; 0.200 kg/ha)
1 (1 - Trace effect): phytotoxicity rating TRZAW (Triticum aestivum [7]; 0.200 kg/ha) | phytotoxicity rating TRZAW (Triticum aestivum [7]; 0.400 kg/ha) | phytotoxicity rating HORVW (Hordeum vulgare [8]; 0.200 kg/ha) | phytotoxicity rating HORVW (Hordeum vulgare [8]; 0.400 kg/ha) | phytotoxicity rating ZEAMX (Zea mays [9]; 0.200 kg/ha) | phytotoxicity rating ORYSA (Oryza sativum [11]; 0.100 kg/ha) | phytotoxicity rating ECHCG (Echinochloa crus-galli [15]; 0.200 kg/ha) | phytotoxicity rating TRZAW (Triticum aestivum [18]; 0.200 kg/ha)
3 (3 - Moderate effect): phytotoxicity rating APESV (Apera spica venti [3]; 0.100 kg/ha) | phytotoxicity rating LOLPE (Lolium perenne [6]; 0.100 kg/ha) | phytotoxicity rating TRZAW (Triticum aestivum [7]; 0.800 kg/ha) | phytotoxicity rating ZEAMX (Zea mays [9]; 0.400 kg/ha) | phytotoxicity rating ORYSA (Oryza sativum [11]; 0.200 kg/ha) | phytotoxicity rating APESV (Apera spica venti [14]; 0.400 kg/ha) | phytotoxicity rating TRZAW (Triticum aestivum [18]; 0.400 kg/ha)
0 (0 - No effect): phytotoxicity rating AMATA (Amaranthus tuberculatus [1]; 0.100 kg/ha) | phytotoxicity rating AMATA (Amaranthus tuberculatus [1]; 0.200 kg/ha) | phytotoxicity rating TRZAW (Triticum aestivum [7]; 0.100 kg/ha) | phytotoxicity rating HORVW (Hordeum vulgare [8]; 0.100 kg/ha) | phytotoxicity rating ZEAMX (Zea mays [9]; 0.100 kg/ha) | phytotoxicity rating GLXMA (Glycine max [10]; 0.100 kg/ha) | phytotoxicity rating GLXMA (Glycine max [10]; 0.200 kg/ha) | phytotoxicity rating GLXMA (Glycine max [10]; 0.400 kg/ha) | phytotoxicity rating GLXMA (Glycine max [10]; 0.800 kg/ha) | phytotoxicity rating AMATA (Amaranthus tuberculatus [12]; 0.200 kg/ha) | phytotoxicity rating AMATA (Amaranthus tuberculatus [12]; 0.400 kg/ha) | phytotoxicity rating SETVI (Setaria viridis [16]; 0.200 kg/ha) | phytotoxicity rating SETVI (Setaria viridis [16]; 0.400 kg/ha) | phytotoxicity rating HORVW (Hordeum vulgare [19]; 0.200 kg/ha) | phytotoxicity rating ZEAMX (Zea mays [20]; 0.200 kg/ha) | phytotoxicity rating ZEAMX (Zea mays [20]; 0.400 kg/ha) | phytotoxicity rating ORYSA (Oryza sativum [22]; 0.200 kg/ha)
5 (5 - Definite injury): phytotoxicity rating GALAP (Galium aparine; 0.400 kg/ha)
54 to 57 °C: melting point
2 (2 - Slight effect): phytotoxicity rating HORVW (Hordeum vulgare [19]; 0.400 kg/ha) | phytotoxicity rating GLXMA (Glycine max [21]; 0.200 kg/ha) | phytotoxicity rating ORYSA (Oryza sativum [22]; 0.400 kg/ha)
4 (4 - Injury): phytotoxicity rating HORVW (Hordeum vulgare [8]; 0.800 kg/ha) | phytotoxicity rating GALAP (Galium aparine; 0.200 kg/ha) | phytotoxicity rating ALOMY (Alopecurus myosuroides [13]; 0.200 kg/ha) | phytotoxicity rating ECHCG (Echinochloa crus-galli [15]; 0.400 kg/ha) | phytotoxicity rating GLXMA (Glycine max [21]; 0.400 kg/ha)
8 (8 - Approaching complete kill): phytotoxicity rating AMATA (Amaranthus tuberculatus [1]; 0.800 kg/ha) | phytotoxicity rating ALOMY (Alopecurus myosuroides [2]; 0.200 kg/ha) | phytotoxicity rating ALOMY (Alopecurus myosuroides [2]; 0.400 kg/ha) | phytotoxicity rating APESV (Apera spica venti [3]; 0.400 kg/ha) | phytotoxicity rating ECHCG (Echinochloa crus-galli [4]; 0.200 kg/ha) | phytotoxicity rating ECHCG (Echinochloa crus-galli [4]; 0.400 kg/ha) | phytotoxicity rating SETVI (Setaria viridis [5]; 0.200 kg/ha) | phytotoxicity rating SETVI (Setaria viridis [5]; 0.400 kg/ha)
